The record followed here is ChEMBL document CHEMBL4376811, “Naturally Occurring Lumazines” (J Nat Prod, 2019).

The target of assay [1] is T1, Sortase A (Staphylococcus aureus, UniProt Q9S446).
T1 sequence (Q9S446 whole entry): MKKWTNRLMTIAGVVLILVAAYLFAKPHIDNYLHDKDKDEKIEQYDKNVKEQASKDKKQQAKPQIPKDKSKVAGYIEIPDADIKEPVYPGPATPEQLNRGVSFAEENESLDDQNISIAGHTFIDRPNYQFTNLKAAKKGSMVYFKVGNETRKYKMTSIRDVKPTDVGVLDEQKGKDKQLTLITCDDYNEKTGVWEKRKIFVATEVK
The experiment in a line: Inhibition of recombinant Staphylococcus aureus ATCC 6538p sortase A incubated for 1 hr in presence of (Dabcyl-QALPETGEE-Edans substrate by fluorescence spectrophotometry.

A short description of assay [2]: Inhibition of Magnaporthe grisea Guy 11 isocitrate lyase. More on the design: species or system Pyricularia grisea.
Assay [3] has as its target Sodium/potassium-transporting ATPase. The experiment in a line: Inhibition of Na+/K+-ATPase in human placental syncytiotrophoblast-microvillous membranes/basal membranes using 3-O-methylfluorescein phosphate by fluorometric method.
The test system of assay [4] is PC-12. The experiment in a line: Anti-anoxic activity in rat PC12 cells reduction in assessed as sodium hydrosulfite-induced cell injury. Format: functional, cell-based.
The target in assay [5] is Cathepsin B (Homo sapiens, UniProt P07858). The experiment in a line: Inhibition of cathepsin B (unknown origin) assessed as reduction in enzyme activity.

≈ marks a conversion by molar mass, not a printed value.

For the molecule `COC(=O)c1ccccc1NC(=O)[C@H](CO)NC(=O)c1cnc2c(n1)c(=O)[nH]c(=O)n2C`, the IC50 in assay [1], in assay [2] and in assay [3] was over 100 µM throughout.

Turning to `COC(=O)c1ccccc1NC(=O)[C@@H](NC(=O)c1cnc2c(n1)c(=O)[nH]c(=O)n2C)[C@@H](C)O`, the IC50 in assay [1], in assay [2] and in assay [3] was over 100 µM throughout.

For `CSc1c(C(=O)O)sc2nc3[nH]c(=O)[nH]c(=O)c3nc12`, the EC50 (usually the concentration at which the effect is half-maximal) in assay [4] amounted to 27 µg/mL (≈ 87 µM).

As to `CSc1c(C(=O)CO)sc2nc3[nH]c(=O)[nH]c(=O)c3nc12`, in assay [4], the EC50 is 19.5 µg/mL (≈ 60.2 µM).

`CN(CCc1cnc[nH]1)c1cnc2[nH]c(=O)[nH]c(=O)c2n1`: the IC50 – broadly, the midpoint of a concentration-inhibition curve – in assay [5] was 4.87 µM.

In the case of `COCCOC(=O)C1=C(C)NC(C)=C(C(=O)OC(C)C)C1c1cccc([N+](=O)[O-])c1` (stereo not given) [NIMODIPINE], the EC50 in assay [4] turned out to be 1.29 µg/mL (≈ 3.08 µM).
